Data taken from patent US10611765B2, “Pyrrolopyrimidine derivatives as Mps1/TTK kinase inhibitors” (Ohio State Innovation Foundation, priority 2014, dated 2020).

Columns and labels:
Type in all cases: cell-based
[1] = tested on: BT-549; experiment: MTS anti-proliferative assay, BT-549; settings: Homo sapiens, 168 h, BT-549, TNBC, basal B, treatment for 7 days
Experimental: (§1) The anti-proliferative effects and IC50 values of the compounds in the BC cell line panel were determined by MTS assay.
The cells, except Sk-Br-3, AU565 and BT-474 were maintained in a mixture of Dulbecco's modified Eagle's medium and Ham's F12 medium (1:1) (DMEM/F12) without phenol red supplemented with 5% fetal bovine serum (FBS) and 1× antibiotic-antimycotic (100 U/mL penicillin G sodium, 100 μg/mL streptomycin sulfate and 0.25 μg/mL amphotericin B) and were plated separately in flasks in a humidified incubator (5% CO2: 95% air, 37° C.). The media used for Sk-Br-3, AU565 and BT-474 cell lines was described in (1) Brueggemeier et al., J. Steroid Biochem. Mol. Biol., 2005; 95:129-136; and (2) Diaz-Cruz et al., J. Clin. Endocrinol. Metab., 2005; 90:2563-2570. The media were changed every 2-days. When the cells grew to about 80% confluence, cells were washed twice with calcium- and magnesium-free phosphate-buffered saline (PBS, pH 7.4), and then trypsinized with 0.05% trypsin-5.3 mm EDTA. The trypsinization was stopped by addition of culture medium with 5% FBS. After centrifugation, the dissociated cells were resuspended in the same medium and subcultured into 75-cm^2 culture flasks at a ratio of 1:5 flasks.
(§2) The BC cells were seeded at the density of 1,000 cells per well (100 μL) into 96 well plate in DMEM/F-12 (1:1), supplemented with 5% (v/v) FCS and incubated overnight at 37° C. Test compounds are solubilized in dimethyl sulfoxide (DMSO), diluted in cell culture medium to a range of final assay concentrations of 1 nM to 10 μM, added to cells and incubated for 7 days at 37° C. The medium including the test compound are refreshed at days 3 and 5. The MTS assay are carried out by using the CellTiter 96® AQueous One Solution Cell Proliferation Assay kit following the manufacturer's instruction.

[2] = tested on: MDA-MB-436; experiment: MTS anti-proliferative assay, MDA-MB-436; settings: Homo sapiens, 168 h, MDA-MB-436, TNBC, basal B, treatment for 7 days
Experimental: as §1
The media were changed every 2-days. When the cells grew to about 80% confluence, cells were washed twice with calcium- and magnesium-free phosphate-buffered saline (PBS, pH 7.4), and then trypsinized with 0.05% trypsin-5.3 mm EDTA. The trypsinization was stopped by addition of culture medium with 5% FBS.
as §2

[3] = tested on: Cal-51 cells; experiment: Centriole assembly / centrosome amplification assay, Cal-51
Experimental: (§3) For these cell biology assays, cells were plated onto poly-L-lysine coated coverslips in 24 well dishes using the medium and growth conditions described above, but using medium containing phenol red. At 24 hours after plating, compounds (or the equivalent amount of DMSO) were added to individual wells at various concentrations. Cells were incubated for 24 hours at 37° C. BrdU was added during the last 4 hours of the incubation, after which cells were fixed in pre-chilled methanol at −20 OC for 10 minutes, stained with centrosome markers, then treated with acid to denature chromosomal DNA prior to staining for BrdU. To assess centriole biogenesis, centriole number was determined for triplicate samples in cells that had entered S-phase as judged by incorporation of BrdU. Primary antibodies used were mouse anti-γTubulin (pericentriolar material) and rabbit anti-Centrin 2 (centrioles). Secondary antibodies used were Alexa594-conjugated donkey anti-mouse and Alexa488-conjugated donkey anti-rabbit.
For centriole assembly assays, Cal-51 and MDA-MB-468 cells were treated with candidate compounds prior to a short pulse of BrdU. Because the centriole pair is replicated at the G1/S transition, compounds that block centrosome assembly will lead to an increased number of BrdU-positive cells with two centrioles. In addition, like many breast cancer cells Cal-51 and MDA-MB-468 are capable of centrosome amplification, and compounds that block this centrosome amplification should reduce the number of BrdU-positive cells with more than four centrioles.

[4] = tested on: MDA-MB-468 cells; experiment: Centriole assembly / centrosome amplification assay, MDA-MB-468; settings: compared to IN-1, AZ3146 and Compound 5
Experimental: as §3
For centriole assembly assays, Cal-51 and MDA-MB-468 cells were treated with candidate compounds prior to a short pulse of BrdU. Because the centriole pair is replicated at the G1/S transition, compounds that block centrosome assembly will lead to an increased number of BrdU-positive cells with two centrioles. […]

## COc1cc(N2CCC(O)CC2)ccc1Nc1nc(Nc2ccccc2S(=O)(=O)C(C)C)c2cc[nH]c2n1 [Compound 1, 1-(4-((4-((2-(isopropylsulfonyl)phenyl)amino)-7H-pyrrolo[2,3-d]pyrimidin-2-yl)amino)-3-methoxyphenyl)piperidin-4-ol]
[1]
  IC50: 810 nM
[2]
  IC50: 900 nM
[3]; Cal-51
  percentage of cells with more than four centrioles (centrosome amplification): dose-dependent reduction
[3]; Cal-51, continued investigations
  percentage of BrdU positive cells that have just two centrioles (centriole assembly): dose-dependent increase
[4]
  percentage of BrdU-positive cells that have just two centrioles: increases
  percentage of cells with more than four centrioles: decreases
